We go through 5 molecules from patent US20050031651A1, “Therapeutic formulations for the treatment of beta-amyloid related diseases” (priority 2002, published 2005).

Where two headings read alike, the source gives them in different places.

Data set [1] concerns mild and moderate Alzheimer's disease patients. To be noted: reference value, cited from earlier work.
Another data set has as its system amyloid deposits. To be noted: mice genetically prone to overproduce amyloid-β; nine week period; cited from earlier work.
Another data set has as its system Aβ CSF concentration. Kind of data set: Aβ CSF concentration of patients at time 0 and 3 months (FPLC, ELISA). The format is in vivo, human. To be noted: for effect on CSF level of Aβ: 3-month period. The method, then: The alkanesulfonic acid used in the study is known to have an effect on the concentration of Aβ in the brain. We also determined the effect of test compound on the change in Aβ CSF levels of patients with mild to moderate Alzheimer's disease compared to that seen in patients treated with a triple combination of test compound with AChEi and statin.
Patients treated with alkanesulfonic acid test compound in the presence or absence of AChEi and statin were evaluated for their Aβ CSF concentration at time 0 and 3 months following the initiation of treatment with the alkanesulfonic acid. The change in AP42 CSF concentration was compared to the respective placebo group.
(§1) Methodology. CSF was obtained from patients before and after treatment with the test compound at daily doses of 100 mg, 200 mg, or 300 mg. CSF was fractionated by FPLC following treatment with formic acid, and then the Aβ containing fraction was lyophilised. The amount of Aβ peptide was measured using an ELISA assay (Biosource). […] The presence of the alkanesulfonic acid in the CSF was determined in patients who had received treatment for three months. In these patients, CSF was collected five hours following dosing, and levels of alkanesulfonic acid were determined by LC-MS/MS.

The subject of data set [2] is mild and moderate Alzheimer's disease patients. Kind of data set: Change in ADAS-Cog score of Alzheimer's patients over nine months of treatment. Format: in vivo, human. To be noted: Mild + Moderate AD patients combined, observed, negative change = improvement. An excerpt:
In this example, mild and moderate patients have been treated with an alkanesulfonic acid, namely 3-amino-1-propanesulfonic acid, in combination with other therapeutic compounds used to diminish symptoms characteristic of Alzheimer's disease (e.g., loss of cognitive functions). The examples comprise the use of an alkanesulfonic acid in combination with cognitive enhancers such as acetylcholine esterase inhibitors (“AChEi”). The effect of these combination therapies on the change in ADAS-cog score in the patients was determined.
Patients were treated with the test alkanesulfonic acid for a period of 9 months. A group of patients received the test compound alone while another group were treated with the test compound in combination with an AChEi, namely donepezil.
Effect on ADAS-Cog. Upon entering the study, Alzheimer's patients were categorized as being “mild” or “moderate” according to their MMSE (“Mini Mental State Examination”) score. B.W.Rover, et al., “Mini-mental state exam in clinical practice.” Hospital Practice 22(1 A), 99 et seq. (1987). (According to this examination a MMSE score in the range of 19 to 26 was considered “mild,” and a score in the range 13 to 18 was considered “moderate”). Then, the change in mental function of these patients was analyzed by using their ADAS-Cog scores, which were recorded periodically over a nine month period. […]

A further data set deals with AP42 in the brain. The conditions noted are these: transgenic mice; previously shown; cited from earlier work.
Data set [3] is described as follows: Presence of the alkanesulfonic acid in CSF of patients (LC-MS/MS). The format is in vivo, human. The conditions noted are these: patients treated three months, CSF collected five hours following dosing, 100, 200 or 300 mg daily. The procedure:
as §1

The next data set deals with SM-4 cells. To be noted: cited from earlier work.

As for `COc1cc2c(cc1OC)C(=O)C(CC1CCN(Cc3ccccc3)CC1)C2` (centres unmarked) [AchEi, donepezil], the “Change in ADAS-Cog over 9 months” value in data set [1] (Mild AD patient group) is recorded as “+5.0 reference”; in data set [1] (Moderate AD patient group), “+2.5 reference”.

Take `Oc1c(I)cc(Cl)c2cccnc12` [Clioquinol, 5-chloro-7-iodo-8-hydroxyquinoline]: in the data set with amyloid deposits, the adverse effects result is reported as “no adverse effects” and the amyloid deposits result is “cut amyloid deposits in half”.

With `NCCCS(=O)(=O)O` [Test compound, 3-amino-1-propanesulfonic acid], the “effect on CSF level of Aβ” value with Aβ CSF concentration (100 mg daily doses, majority of patients) was “stable Aβ CSF levels”; in the data set on Aβ CSF concentration (200 or 300 mg daily doses), “reduce the CSF level of Aβ”. In addition, the “decrease in Aβ CSF concentration” value with Aβ CSF concentration (mild to moderate AD patients, time 0 vs 3 months after start of treatment) is recorded as 34%. Moreover, in the data set with Aβ CSF concentration (vs placebo (test compound) or vs AChEi and statin (triple therapy), 3 months), the “difference in change of Aβ CSF concentration compared to the respective control group” value was 49%. Further, the “Change in ADAS-Cog over 9 months” value in data set [2] is given as −0.5 observed; in data set [2] (listed as test compound), −0.5. Besides, the “levels of soluble and insoluble AP42 in the brain” value with AP42 in the brain is “decrease the levels of both soluble and insoluble AP42”. Further, the “presence of the alkanesulfonic acid in CSF” value in data set [3] is “present in CSF of patients in a dose-dependent manner”.

With `CCOC(=O)C(C)(C)Oc1ccc(Cl)cc1` [clofibrate, ethyl 2-(p-chlorophenoxy)-2-methylpropionate], the Aβ42 extracellular levels entry in the data set on SM-4 cells (SM-4 cells, concentration range of 50-500 μM) was “increase Aβ42 extracellular levels”.

Turning to `Cc1cccc(Nc2cc(Cl)nc(SCC(=O)O)n2)c1C` [pirinixic acid], in the data set with SM-4 cells (concentration-dependent manner), the “Aβ42 production or release from SM-4 cells” value was “decrease in Aβ42 production or release”.
